# Laboratory results published in paper PMC10747602, “Dose Response, Dosimetric, and Metabolic Evaluations of Replacement PFAS Perfluoro-(2,5,8-trimethyl-3,6,9-trioxadodecanoic) Acid (HFPO-TeA)” (Toxics, 2023).
# Values joined by “and” are separate entries in the source; they are usually repeats but may differ in a detail not shown here. Identical values can stand only once.
# Tests used:
# [1] = set-up: method as in PMID 21948869, PMID 36309054; settings: cited from earlier work
# human hepatocytes = test: Hepatocyte metabolic stability (clearance) assay, human hepatocytes; settings: 1000 nM; for Negative Control Data, No cells (NC), Ln Concentration / Negative Control Data, Heat Treated (HT), Ln Concentration / Ln Concentration: Rep 1-3
# Protocol: (§1) Information on the chemicals and materials used in the hepatocyte metabolic work can be found in Supplementary Text S9 and Table S3. In vitro evaluations of hepatocyte metabolic stability were performed in human and rat hepatocytes, as previously described. Briefly, pooled, cryopreserved hepatocyte suspensions were thawed, assessed for viability, and then diluted in William’s medium E containing dexamethasone and cell maintenance cocktail B to achieve a cell density of 50,000 cells/100 µL. The assay was started by adding hepatocyte suspensions to wells of 96-well polypropylene plates containing an equal volume of media with 2 µM of analyte (final assay concentration: 1 µM). Plates were placed in a 37 °C cell culture incubator (5% CO2) on a shaker set to 200 rpm. Time points assessed were T0, T15, T30, T60, T120, and T240 min. At each time point, the plates were removed from the shaker and the incubates were crashed with an equal volume of ice-cold ACN containing 1.2% FA and 16 ng/mL of ^13C3 -HFPO-DA. After chilling and centrifugation at 4122× g, the supernatants were transferred to new collection plates and stored at −70 °C until analysis for the parent compound on the Waters instrumentation described below. Immediately prior to analysis, samples were thawed, vortexed, and centrifuged at 4200× g, and then diluted 1:4 in 95:5 H2O/ACN with 2.5 mM of ammonium acetate. Negative controls, including no cell controls and metabolically inactivated hepatocytes, were run concurrently to assess the chemical stability over the time course.
# (§2) Intrinsic clearance (Clint; hepatic clearance) calculations are detailed in Supplementary Text S9 [57].
# (§3) Targeted, quantitative analysis of in vitro hepatocyte metabolic stability and plasma protein binding assay samples was conducted on a Waters Xevo-TQS micro mass spectrometer (Waters, Milford, MA, USA) ultra-high-performance liquid chromatography tandem mass spectrometry system (UPLC-MS/MS), modified with a PFAS analysis kit. Samples were analyzed in negative ion mode with UniSpray ionization. A CORTECS T3 column (Waters CORTECS, 3 × 100 mm, particle size 2.7 µm) was used for chromatographic separation with a flow rate of 0.6 mL/min and a temperature of 55 °C. Gradient elution was used with eluent A (95:5 H2O/ACN) and eluent B (95:5 ACN/H2O) with 2.5 mM of ammonium acetate. The gradient is available in Table S11. Additional details for MS parameters are found in Table S12 and monitored transitions are found in Table S13.
# (§4) Table S2: Data processing parameters used with Sciex MarkerView 1.3.1.
# (§5) Support ing Text S9: Hepatocyte Metabolic Stability Assay Materials, Chemicals, and Calculations
# (§6) Pooled human and rat cryopreserved primary hepatocyte suspensions were both obtained from
# (§7) BioIVT, a US Food and Drug Administration-licensed and inspected donor center, and produced using
# (§8) non-transplantable tissue.
# (§9) William’s E media, dexamet hasone (98% pure), and cell maintenance cocktail B were obtained from
# (§10) Thermo Fisher Scientific (Waltham, MA, USA), the OptiThaw hepatocyte kit from Sekisui/Xenotech
# (§11) (Tokyo, Japan), and the trypan blue s (Sekisui/ Xenotech, Tokyo, Japan) and the trypan blue solution from […]
# [2] = as above; settings: human, hepatocytes, 1000 nM
# Protocol: as §1, §2, §3, §4, §5, §6, §7, §8, §9, §10, §11
# rat hepatocytes = test: Hepatocyte metabolic stability (clearance) assay, rat hepatocytes; settings: 1000 nM
# Protocol: as §1, §2, §3, §4, §5, §6, §7, §8, §9, §10, §11
# [3] = as above; settings: both, Sprague Dawley, rat, hepatocytes
# Protocol: as §1, §2, §3, §4, §5, §6, §7, §8, §9, §10, §11
smiles,measurement,setting,value
"O=S(=O)(O)C(F)(F)C(F)(F)C(F)(F)C(F)(F)C(F)(F)C(F)(F)C(F)(F)C(F)(F)F [PFOS, perfluorooctane sulfonic acid]",underestimation of Css values by previous IVIVE evaluations,[1],> 100 ×
"CCOc1ccc(NC(C)=O)cc1 [Phenactin, phenacetin, reference compound]","Negative Control Data, No cells (NC), Ln Concentration",human hepatocytes; 15 min,3.8649 and 3.8943 and 3.8643
same,"Negative Control Data, No cells (NC), Ln Concentration",human hepatocytes; 240 min,3.9162 and 4.0144 and 3.9729
same,HT Background k,human hepatocytes; heat treated human hepatocytes,-0.0016
same,"Negative Control Data, Heat Treated (HT), Ln Concentration","human hepatocytes; human hepatocytes, 15 min",4.4085 and 4.9735 and 5.3748
same,"Negative Control Data, Heat Treated (HT), Ln Concentration","human hepatocytes; human hepatocytes, 240 min",4.6160 and 4.4891 and 4.5540
same,Ln Concentration,"human hepatocytes; human hepatocytes, time 0 min",3.7764 and 3.7975 and 3.7223
same,Ln Concentration,"human hepatocytes; human hepatocytes, time 15 min",3.8137 and 3.7544 and 3.6623
same,Ln Concentration,"human hepatocytes; human hepatocytes, time 30 min",3.5799 and 3.7106 and 3.6378
same,Ln Concentration,"human hepatocytes; human hepatocytes, time 60 min",3.3014 and 3.5121 and 3.4541
same,Linear Regression Best-Fit Slope (ln concentration vs time),"human hepatocytes; human hepatocytes, time in min",-0.006025
same,hepatocyte CLint at 1 µM,"[2]; Background-Subtracted Clint, human hepatocytes",8.8 µL/min/1e6 cells
same,hepatocyte CLint at 1 µM,"[2]; Clint, human hepatocytes, not background-subtracted",12.1 µL/min/1e6 cells
same,half-life at 1 µM,"[2]; HT-Background Half Life, heat treated human hepatocytes",426 min
same,half-life at 1 µM,"[2]; Half Life, human hepatocytes, time in min",115 min
same,"Negative Control Data, Heat Treated (HT), 15 min","rat hepatocytes; heat treated rat hepatocytes, 15 min, Ln concentration, Rep 1-3",3.7605 and 3.8293 and 3.8230
same,"Negative Control Data, Heat Treated (HT), 240 min","rat hepatocytes; heat treated rat hepatocytes, 240 min, Ln concentration, Rep 1-3",3.8801 and 3.8626 and 3.3989
same,"Negative Control Data, No cells (NC), 15 min","rat hepatocytes; no cells, 15 min, Ln concentration, Rep 1-3",3.7121 and 3.7753 and 3.7677
same,"Negative Control Data, No cells (NC), 240 min","rat hepatocytes; no cells, 240 min, Ln concentration, Rep 1-3",3.8252 and 3.8743 and 4.0157
same,"Ln Concentration, 0 min","rat hepatocytes; suspended rat hepatocytes, time 0 min, Rep 1-3",3.7431 and 3.7883 and 3.8093
same,"Ln Concentration, 15 min","rat hepatocytes; suspended rat hepatocytes, time 15 min, Rep 1-3",3.7497 and 3.8776 and 3.8997
same,"Ln Concentration, 30 min","rat hepatocytes; suspended rat hepatocytes, time 30 min, Rep 1-3",3.5148 and 3.4871 and 3.5444
same,"Ln Concentration, 60 min","rat hepatocytes; suspended rat hepatocytes, time 60 min, Rep 1-3",3.0012 and 3.3979 and 3.4757
same,"Ln Concentration, 120 min","rat hepatocytes; suspended rat hepatocytes, time 120 min, Rep 1-3",2.7575 and 2.7517 and 2.9423
same,"Ln Concentration, 240 min","rat hepatocytes; suspended rat hepatocytes, time 240 min, Rep 1-3",2.0042 and 1.7029 and 2.0503
same,Linear Regression Best-Fit Slope (Ln concentration vs time),"rat hepatocytes; suspended rat hepatocytes, time in min",-0.008025
same,half-life at 1000 nM,[3],86.4 min
same,hepatocyte CLint at 1000 nM,[3],16.1 µL/min/1e6 cells
